# Measurements taken from US20180282403A1, “AGENTS FOR REDUCING THE ACTIVITY OF GDF15” (GENAGON THERAPEUTICS AB, priority 2015, published 2018).
# Test system: QRFPR
# Experiment: In situ PLA detection of QRFPR at the cell surface in U2OS osteosarcoma cells
# Assay type: cell-based
# Settings: U2OS cells, GDF15 alone; FIG. 9E
# Text: A-D) In situ PLA detection of the Rab11-QRFPR complex following exposure of MCF7 cells to GDF15. A) +Ctrl peptide. B) +QRFPR extracellular N-terminal peptide. C-D) +QRFPR extracellular loop3 (domain 4) peptide. The level of the Rab11-QRFPR complex is reduced by the peptide from extracellular loop3 of QRFPR. E) in situ PLA detection of QRFPR in U2OS osteosarcoma cells.
# We choose to use this assay as a way to investigate if the activity of GDF15 could be inhibited by various agents. […] GDF15-induced formation of RAB11/QRFPR endosomes is inhibited by QRFPR peptides (FIG. 9A-D). Equal amounts of a mastermix of GDF15 was aliquoted and pre-incubated in PBS with the various receptor fragment before addition to cells. Sequentially, the cells were treated with either PBS, GDF15 or GDF15/QRFPR-derived peptide mixes.
substance,measurement,value
"GDF15: Growth and differentiation factor 15, from mammalian source or recombinant from E. coli (Abcam, Biovision)",level of QRFPR at the cell surface,reduced by GDF15
